Assay results taken from patent US6589751B2, “Immonological detection of the homocystamide adduct and a thiolactone immunoassay for endogeneous homocysteine” (MCW Research Foundation, priority 1997, dated 2003).
Entries after “also recorded” stand apart in the source; their conditions may differ.

Key:
Assay type in all cases: binding, rabbit
[1] = system: antiserum to homocystamide-LDL adduct; assay: competition ELISA with antiserum (1:700), solid phase homocystamide-LDL adduct; conditions: competitor against solid phase homocystamide-LDL adduct
Method: Antiserum obtained as described in FIG. 1 was added to Millipore 96-well plates containing pre-adsorbed homocystamide-LDL adduct (100 μl, 10 μg/ml) at a limiting dilution (1:700) in the indicated concentrations of competitors (●, homocystamide-LDL adduct, ∘, native LDL, □, acetylated LDL, ▴, methylated LDL, ▪, methylated LDL treated with homocysteine thiolactone). Following a 12 hour incubation, antibody bound was quantified as described in FIG. 2. […] This experiment is representative of 3 independent experiments. (n=3 for each data point. Data points are the mean±SEM).
Antiserum obtained as described in FIG. 1 was added to Millipore 96-well plates containing pre-adsorbed homocystamide-LDL adduct (100 μl, 10 μg/ml) at a limiting dilution (1:700) in the indicated concentrations of competitors (●, Cu^2+-oxidized homocystamide-LDL adduct, ▪, Cu^2+-oxidized LDL, ▴, homocysteine). Following a 12 hour incubation, antibody bound was quantified as described in FIG. 1. […] This experiment is representative of 3 independent experiments. (n=3 for each data point. Data points are the mean±SEM).
Antiserum obtained as described in FIG. 1 was added to Millipore 96-well plates containing pre-adsorbed homocystamide-LDL adduct (100 μl, 10 μg/ml) at a limiting dilution (1:700) in the indicated concentrations of competitors (▴, ●, ▪, homocystamide-LDL, -HDL, and -lipoprotein-deficient serum proteins isolated from homocysteine thiolactone-treated plasma, and freshly drawn plasma without homocysteine thiolactone treatment, Δ). Following a 12 hour incubation, antibody bound following a 2-hour incubation, antibody bound was quantified as described in FIG. 1 using horseradish peroxidase-linked goat-anti-rabbit IgG (heavy and light chains). […] (n=4 for each data point. Data points are the mean±SEM). […] (This experiment is representative of 3 independent experiments. Data points are the mean of duplicate measurements.)
Briefly, 96-well plates were initially coated with homocystamide-LDL adduct (100 μl, 10 μg/ml). […] Immunoglobulin classes were determined using goat-anti-rabbit-μ-chain-specific, -heavy chain specific, and -heavy and light chain specific secondary antibodies that were linked to horseradish peroxidase. In order to determine antibody specificity, competition experiments were employed, using a limiting dilution (1:300) of purified antibody. Horseradish peroxidase-labeled goat-anti rabbit (heavy and light chain-specific) was used as a substrate, and the reaction was quenched by the addition of H2SO4 (100 μl, 1.8 M). The absorbance was measured at 450 nm in a 96-well plate reader.
Homocysteine thiolactone-treated LDL (10 μg/ml) was coated onto 96-well plates.

[2] = system: purified polyclonal antibody directed against the homocystamide adduct; assay: competition ELISA with purified polyclonal antibody (1:300), solid phase homocystamide-LDL adduct; conditions: for IC50 values, D,L- versus L-homocystamide-BSA compared: competitor 0-500 μg/ml, P>0.05, data not shown
Method: Solid phase ELISA techniques for antibody characterization. Solid phase indirect antibody capture techniques were used in all assays and have been described elsewhere (10, 34). Briefly, 96-well plates were initially coated with homocystamide-LDL adduct (100 μl, 10 μg/ml). For antibody titer determinations, the antisera were diluted at concentrations as indicated in the “Results” section. We defined antibody titers as the inverse of the greatest serum dilution in which a significant difference (p<0.05) between the percentage antibody bound from the antiserum and the pre-immune serum was observed. Immunoglobulin classes were determined using goat-anti-rabbit-μ-chain-specific, -heavy chain specific, and -heavy and light chain specific secondary antibodies that were linked to horseradish peroxidase. In order to determine antibody specificity, competition experiments were employed, using a limiting dilution (1:300) of purified antibody. Horseradish peroxidase-labeled goat-anti rabbit (heavy and light chain-specific) was used as a […], and the reaction was quenched by the addition of H2SO4 (100 μl, 1.8 M). The absorbance was measured at 450 nm in a 96-well plate reader.
Purification of antiserum. Polyclonal rabbit-anti-homocystamide antiserum was obtained following the 4th immunization of New Zealand White rabbits with homologous homocystamide-LDL adduct (0.5 mg in Freund's adjuvant) as described previously (34). A saturated solution of ammonium sulfate was added dropwise to the antiserum while stirring until the solution was 25% saturated with ammonium sulfate. This mixture was incubated overnight at 4° C. The mixture was centrifuged, and pellet was discarded. Ammonium sulfate was added to the supernatant while stirring until the final concentration of the solution was 50% ammonium sulfate. This mixture was incubated overnight at 4° C. The mixture was centrifuged, and the supernatant was discarded. The pellet was brought up in and dialyzed against Tris (10 mM, pH 7.5). […]

[3] = system: antiserum to homocystamide-LDL adduct; assay: solid phase ELISA serum dilution curve on homocystamide adducts of other proteins; conditions: protein coated on solid phase
Method: Solid phase ELISA techniques for antibody characterization. Solid phase indirect antibody capture techniques were used in all assays and have been described elsewhere (10, 34). Briefly, 96-well plates were initially coated with homocystamide-LDL adduct (100 μl, 10 μg/ml). For antibody titer determinations, the antisera were diluted at concentrations as indicated in the “Results” section. We defined antibody titers as the inverse of the greatest serum dilution in which a significant difference (p<0.05) between the percentage antibody bound from the antiserum and the pre-immune serum was observed. Immunoglobulin classes were determined using goat-anti-rabbit-μ-chain-specific, -heavy chain specific, and -heavy and light chain specific secondary antibodies that were linked to horseradish peroxidase. In order to determine antibody specificity, competition experiments were employed, using a limiting dilution (1:300) of purified antibody. […] The absorbance was measured at 450 nm in a 96-well plate reader.
We sought to determine whether or not homocystamide adducts of other proteins could also be used in order to measure antibody titers. […] This curve resembled the serum dilution curve obtained in FIG. 4, as the antiserum recognized both homocystamide-BSA and homocystamide-hemoglogin adduct, indicated by antiserum dilution-dependent increase in the absorbance at 450 nm.

[4] = target: purified polyclonal anti-homocystamide adduct antibody; assay: competition ELISA with purified polyclonal antibody (1:400), plates coated with homocystamide-BSA adduct
Method: Microtiter plate preparation. BSA (10 mg/ml in 1M borate, pH 8.4) was incubated for 6 hours at 25° C. in the presence of homocysteine thiolactone (50 mM). Following incubation, excess homocysteine thiolactone was removed by passing the sample down a column pre-equilibrated with NaCO3 (100 mM, pH 9.6). Homocystamide-BSA adduct was diluted to 5 μg/ml in NaCO3 (100 mM, pH 9.6), and 200 μl/well was added to polystyrene microtiter plates (11). These plates were incubated overnight at 4° C., rinsed in PBS, and either used immediately or covered and stored in PBS for future use.
Preparation of a standard curve. In order to prepare a standard curve of known homocysteine concentrations, the indicated concentrations of homocysteine were incubated in the presence of HCl (6N) and heated at 60° C. for 2 hours. […] These solutions were used in a competitive antibody binding assays in parallel with “test solutions” that were analyzed for homocysteine concentrations.
Immunoassay. […] The reactions were quenched after 30 minutes by the addition of H2SO4 (1.8N) and read at 450 nm. […]
Determination of antibody specificity. Antibody specificity for homocystamide-BSA adduct was determined. […] Results of antibody binding are expressed as B/B0, in which B is the % antibody binding in the presence of competitor, and B0 is the % antibody binding in the absence of competitor. […]

N[C@@H](CCSSCC[C@H](N)C(=O)O)C(=O)O [homocystine]
competition for binding to the antiserum (dose-dependent decrease in %B/B0) [1]: neither BSA nor homocysteine disulfide (homocystine) were recognized; also recorded: Neither homocysteine, homocystine (homocysteine disulfide), nor Cu^2+-oxidized LDL competed for binding | competition / recognition by purified polyclonal antibody ([2]; purified polyclonal antibody 1:300, solid phase homocystamide-LDL): much less affinity than protein-homocystamide adducts; also recorded: recognized, however with much lower affinity

L-homocystamide-BSA: BSA incubated with L-homocysteine thiolactone
IC50 values, D,L- versus L-homocystamide-BSA compared [2]: not significantly different

D,L-homocystamide-BSA: BSA incubated with D,L Homocysteine thiolactone
IC50 values, D,L- versus L-homocystamide-BSA compared [2]: not significantly different

homocystamide-BSA adduct: BSA treated with homocysteine thiolactone; printed as BSA in the IC50 sentence of b114
recognition by the antiserum (dilution-dependent increase in absorbance at 450 nm) [3]: recognized | IC50, inhibition of antibody binding (B/B0) [4]: approximately 200 μg/ml

N[C@@H](CCS)C(=O)O [homocysteine]
competition for binding to the antiserum (dose-dependent decrease in %B/B0) [1]: Neither homocysteine, homocystine (homocysteine disulfide), nor Cu^2+-oxidized LDL competed for binding | competition for binding to the antiserum (dose-dependent decrease in %B/B0) ([1]; listed as free homocysteine): did not compete for binding
